Literature values in patent publication US20200323770A1, “WOUND DEBRIDEMENT COMPOSITION AND METHOD FOR TREATING WOUNDS” (Hollister Incorporated, priority 2017, published 2020).

Details: in vitro; increasing papain concentrations 200-1,600 USP units/mg in 10% urea

papain
increased: collagenolysis | elastinolysis | fibrinolysis
